Target: T1, human CRF receptors (Homo sapiens, UniProt P34998)
T1 construct: expressed in transfected cells
T1 sequence (P34998 24-415): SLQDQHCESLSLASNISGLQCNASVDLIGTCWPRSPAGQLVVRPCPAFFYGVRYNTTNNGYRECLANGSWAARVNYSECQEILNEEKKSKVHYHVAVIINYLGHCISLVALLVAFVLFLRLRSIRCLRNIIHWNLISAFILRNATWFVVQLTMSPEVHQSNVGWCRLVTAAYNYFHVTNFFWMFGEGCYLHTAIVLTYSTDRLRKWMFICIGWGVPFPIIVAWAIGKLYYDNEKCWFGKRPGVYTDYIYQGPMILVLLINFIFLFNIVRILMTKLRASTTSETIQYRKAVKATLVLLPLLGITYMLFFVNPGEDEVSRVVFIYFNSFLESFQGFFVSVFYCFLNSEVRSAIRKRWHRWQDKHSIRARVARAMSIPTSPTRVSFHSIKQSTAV
Test: CRF receptor binding activity (radioligand displacement, Example 25)
Conditions: not given
Excerpt: The effectiveness of a compound as a CRF receptor antagonist may be determined by various assay methods. […] CRF receptor affinity may be determined by binding studies that measure the ability of a compound to inhibit the binding of a radiolabeled CRF (e.g., [^125I]tyrosine-CFR) to its receptor (e.g., receptors prepared from rat cerebral cortex membranes). The radioligand binding assay described by DeSouza et al. (supra, 1987) provides an assay for determining a compound's affinity for the CRF receptor.
[formula] where L=radioligand and KD=affinity of radioligand for receptor (Cheng and Prusoff, Biochem. Pharmacol. 22:3099, 1973).
By utilizing radiolabeled CRF ligands, the assay may be used to evaluate the binding activity of the compounds of the present invention with any CRF receptor subtype.
Briefly, the binding assay involves the displacement of a radiolabeled CRF ligand from the CRF receptor. More specifically, the binding assay is performed in 96-well assay plates using 1-10 μg cell membranes from cells stably transfected with human CRF receptors. […] The mixture is incubated for 2 hours at 22° C. followed by separation of the bound and free radioligand by rapid filtration over glass fiber filters. Following three washes, the filters are dried and radioactivity (Auger electrons from ^125I) is counted using a scintillation counter. All radioligand binding data may be analyzed using the non-linear least-squares curve-fitting programs Prism (GraphPad Software Inc) or XLfit (ID Business Solutions Ltd).

| Ki [nM] | Compound |
| --- | --- |
| < 100 | COc1ccc(-c2c(C)nn3c(N[C@H](C)Cc4noc(C)n4)cc(C)nc23)c(C)c1 [Example 17-1, [3-(4-Methoxy-2-methyl-phenyl)-2,5-dimethyl-pyrazolo[1,5-a]pyrimidin-7-yl]-[(R)-1-methyl-2-(5-methyl-[1,2,4]oxadiazol-3-yl)-ethyl]-amine] |
| < 100 | CCN(Cc1nc(C)no1)c1cc(C)nc2c(-c3ccc(OC)cc3C)c(C)nn12 [Example 20-1, Ethyl-[3-(4-methoxy-2-methyl-phenyl)-2,5-dimethyl-pyrazolo[1,5-a]pyrimidin-7-yl]-(3-methyl-[1,2,4]oxadiazol-5-ylmethyl)-amine] |
| < 100 | CCC(Nc1cc(C)nc2c(-c3ccc(OC)cc3C)c(C)nn12)c1nnc(C)o1 (stereo not shown) [Example 22-1, [3-(4-Methoxy-2-methyl-phenyl)-2,5-dimethyl-pyrazolo[1,5-a]pyrimidin-7-yl]-[1-(5-methyl-[1,3,4]oxadiazol-2-yl)-propyl]-amine] |

Same assay, conditions: displacement of [125I] tyrosine-sauvagine from membranes of cells stably transfected with human CRF receptors; less than 0.10 μM (i.e., 100 nM); read-out: Ki (CRF receptor binding affinity)

| Compound | Ki [nM] |
| --- | --- |
| COc1ccc(-c2c(C)nn3c(N[C@H](C)Cc4nc(C(F)(F)F)no4)cc(C)nc23)c(Cl)c1 [Example 13-6, [3-(2-Chloro-4-methoxy-phenyl)-2,5-dimethyl-pyrazolo[1,5-a]pyrimidin-7-yl]-[(R)-1-methyl-2-(3-trifluoromethyl-[1,2,4]oxadiazol-5-yl)-ethyl]-amine] | < 100 |
| COc1ccc(-c2c(C)nn3c(N[C@H](C)Cc4nc(C(F)(F)F)no4)cc(C)nc23)c(OC)c1 [Example 13-7, [3-(2,4-Dimethoxy-phenyl)-2,5-dimethyl-pyrazolo[1,5-a]pyrimidin-7-yl]-[(R)-1-methyl-2-(3-trifluoromethyl-[1,2,4]oxadiazol-5-yl)-ethyl]-amine] | < 100 |
| COc1ccc(-c2c(C)nn3c(N[C@@H](Cc4nc(C)no4)C(F)(F)F)cc(C)nc23)c(OC)c1 [Example 13-8, [3-(2,4-Dimethoxy-phenyl)-2,5-dimethyl-pyrazolo[1,5-a]pyrimidin-7-yl]-[2,2,2-trifluoro-(S)-1-(3-methyl-[1,2,4]oxadiazol-5-ylmethyl)-ethyl]-amine] | < 100 |
| COc1ccc(-c2c(C)nn3c(N[C@@H](Cc4nc(C(F)(F)F)no4)C(F)(F)F)cc(C)nc23)c(OC)c1 [Example 13-9, [3-(2,4-Dimethoxy-phenyl)-2,5-dimethyl-pyrazolo[1,5-a]pyrimidin-7-yl]-[2,2,2-trifluoro-(S)-1-(3-trifluoromethyl-[1,2,4]oxadiazol-5-ylmethyl)-ethyl]-amine] | < 100 |
| COc1ccc(-c2c(C)nn3c(N4CCC[C@H]4Cc4nc(C)no4)cc(C)nc23)c(C)c1 [Example 14-3, 3-(4-Methoxy-2-methyl-phenyl)-2,5-dimethyl-7-[(S)-2-(3-methyl-[1,2,4]oxadiazol-5-ylmethyl)-pyrrolidin-1-yl]-pyrazolo[1,5-a]pyrimidine] | < 100 |
| CC[C@H](Nc1cc(C)nc2c(-c3ccc(OC)cc3Cl)c(C)nn12)c1nc(C)no1 [Example 14-4, [3-(2-Chloro-4-methoxy-phenyl)-2,5-dimethyl-pyrazolo[1,5-a]pyrimidin-7-yl]-[(S)-1-(3-methyl-[1,2,4]oxadiazol-5-yl)-propyl]-amine] | < 100 |
| COCCN(Cc1nc(C)no1)c1cc(C)nc2c(-c3ccc(OC)cc3OC)c(C)nn12 [Example 15-1, [3-(2,4-Dimethoxy-phenyl)-2,5-dimethyl-pyrazolo[1,5-a]pyrimidin-7-yl]-(2-methoxy-ethyl)-(3-methyl-[1,2,4]oxadiazol-5-ylmethyl)-amine] | < 100 |

Results, then the molecule that gave them:

| Ki [nM] | Compound |
| --- | --- |
| < 100 | CC[C@@H](Cc1noc(C)n1)Nc1cc(C)nc2c(-c3ccc(OC)cc3C)c(C)nn12 [Example 17-2, [3-(4-Methoxy-2-methyl-phenyl)-2,5-dimethyl-pyrazolo[1,5-a]pyrimidin-7-yl]-[(S)-1-(5-methyl-[1,2,4]oxadiazol-3-ylmethyl)-propyl]-amine] |
| < 100 | CC[C@H](Cc1noc(C)n1)Nc1cc(C)nc2c(-c3ccc(OC)cc3C)c(C)nn12 [Example 17-3, [3-(4-Methoxy-2-methyl-phenyl)-2,5-dimethyl-pyrazolo[1,5-a]pyrimidin-7-yl]-[(R)-1-(5-methyl-[1,2,4]oxadiazol-3-ylmethyl)-propyl]-amine] |
| < 100 | COc1ccc(-c2c(C)nn3c(N[C@H](C)Cc4noc(C5CC5)n4)cc(C)nc23)c(C)c1 [Example 18-1, [(R)-2-(5-Cyclopropyl-[1,2,4]oxadiazol-3-yl)-1-methyl-ethyl]-[3-(4-methoxy-2-methyl-phenyl)-2,5-dimethyl-pyrazolo[1,5-a]pyrimidin-7-yl]-amine] |
| < 100 | COc1ccc(-c2c(C)nn3c(N[C@H](C)Cc4noc(C(F)(F)F)n4)cc(C)nc23)c(C)c1 [Example 18-2, [3-(4-Methoxy-2-methyl-phenyl)-2,5-dimethyl-pyrazolo[1,5-a]pyrimidin-7-yl]-[(R)-1-methyl-2-(5-trifluoromethyl-[1,2,4]oxadiazol-3-yl)-ethyl]-amine] |
| < 100 | COc1ccc(-c2c(C)nn3c(N[C@@H](Cc4noc(C)n4)C(F)(F)F)cc(C)nc23)c(C)c1 [Example 19-1, [3-(4-Methoxy-2-methyl-phenyl)-2,5-dimethyl-pyrazolo[1,5-a]pyrimidin-7-yl]-[(S)-2,2,2-trifluoro-1-(5-methyl-[1,2,4]oxadiazol-3-ylmethyl)-ethyl]-amine] |
| < 100 | COc1ccc(-c2c(C)nn3c(N4CCCCC4Cc4nc(C)no4)cc(C)nc23)c(C)c1 (stereo not shown) [Example 20-2, 3-(4-Methoxy-2-methyl-phenyl)-2,5-dimethyl-7-[2-(3-methyl-[1,2,4]oxadiazol-5-ylmethyl)-piperidin-1-yl]-pyrazolo[1,5-a]pyrimidine] |
| < 100 | CCC(Nc1cc(C)nc2c(-c3ccc(OC)cc3C)c(C)nn12)c1nnco1 (stereo not shown) [Example 21-1, [3-(4-Methoxy-2-methyl-phenyl)-2,5-dimethyl-pyrazolo[1,5-a]pyrimidin-7-yl]-(1-[1,3,4]oxadiazol-2-yl-propyl)-amine] |
| < 100 | COc1ccc(-c2c(C)nn3c(NC(C)Cc4nnc(C(F)(F)F)o4)cc(C)nc23)c(C)c1 (stereo not shown) [Example 23-2, [3-(4-Methoxy-2-methyl-phenyl)-2,5-dimethyl-pyrazolo[1,5-a]pyrimidin-7-yl]-[1-methyl-2-(5-trifluoromethyl-[1,3,4]oxadiazol-2-yl)-ethyl]-amine] |
| < 100 | CCC(Nc1cc(C)nc2c(-c3ccc(OC)cc3Cl)c(C)nn12)c1nc(C)no1 (stereo not shown) [Example 24-1, [3-(2-Chloro-4-methoxy-phenyl)-2,5-dimethyl-pyrazolo[1,5-a]pyrimidin-7-yl]-[1-(3-methyl-[1,2,4]oxadiazol-5-yl)-propyl]-amine] |
| < 100 | CCC(Nc1cc(C)nc2c(-c3ccc(Cl)cc3OC)c(C)nn12)c1nc(C)no1 (stereo not shown) [Example 24-2, [3-(4-Chloro-2-methoxy-phenyl)-2,5-dimethyl-pyrazolo[1,5-a]pyrimidin-7-yl]-[1-(3-methyl-[1,2,4]oxadiazol-5-yl)-propyl]-amine] |
| < 100 | CCC(Nc1cc(C)nc2c(-c3ccc(Cl)cc3C)c(C)nn12)c1nc(C)no1 (stereo not shown) [Example 24-4, [3-(4-Chloro-2-methyl-phenyl)-2,5-dimethyl-pyrazolo[1,5-a]pyrimidin-7-yl]-[1-(3-methyl-[1,2,4]oxadiazol-5-yl)-propyl]-amine] |
| < 100 | CCC(Nc1cc(C)nc2c(-c3ccc(C)cc3Cl)c(C)nn12)c1nc(C)no1 (stereo not shown) [Example 24-6, [3-(2-Chloro-4-methyl-phenyl)-2,5-dimethyl-pyrazolo[1,5-a]pyrimidin-7-yl]-[1-(3-methyl-[1,2,4]oxadiazol-5-yl)-propyl]-amine] |

Source: patent publication US7879862B2, “Pyrazolo[1,5-alpha]pyrimidinyl derivatives useful as corticotropin-releasing factor (CRF) receptor antagonists” (SmithKline Beecham (Cork) Limited, priority 2004, dated 2011)
